# According to the Kinase Knowledgebase extract (Sharma et al. 2016):
# Molecular target: MAPK14 (murine)
# Assay: Inhibition of MAPK14 Kinase Activity
row,Structure (SMILES),IC50 [nM]
1,COc1ccc(CCC2(O)CCN(C)CC2)cc1C(=O)c1ccc(Nc2ccc(F)cc2F)cc1,51
2,COc1cc2nc(C)[nH]c2cc1C(=O)c1ccc(Nc2ccc(F)cc2F)nc1,21
3,COc1ccc(CCC(C)(C)N)cc1C(=O)c1ccc(Nc2ccc(F)cc2F)cc1,113
4,COc1ccccc1C(=O)c1ccc(Nc2ccc(F)cc2F)cc1,38
5,O=C(c1ccc(Nc2ccc(F)cc2F)nc1)c1ccccc1Cl,101
6,COc1ccc(C#CC(C)(C)O)cc1C(=O)c1ccc(Nc2ccc(F)cc2F)nc1,54
7,COc1ccc(CCC(C)(C)O)cc1C(=O)c1ccc(Nc2ccc(F)cc2F)nc1,479
8,O=C(c1ccc(Nc2ccc(F)cc2F)nc1)c1cc(Br)ccc1Cl,300
9,CC(C)(N)C#Cc1ccc(Cl)c(C(=O)c2ccc(Nc3ccc(F)cc3F)nc2)c1,19
10,CC(C)(N)CCc1ccc(Cl)c(C(=O)c2ccc(Nc3ccc(F)cc3F)nc2)c1,160

# These reach a lower IC50. Values come first.
row,IC50 [nM],Structure (SMILES)
1,14,COc1ccc(C#CC(C)(C)N)cc1C(=O)c1ccc(Nc2ccc(F)cc2F)cc1
2,11,O=C(c1ccc(Nc2ccc(F)cc2F)cc1)c1ccccc1Cl
3,8,Cc1nc2cc(Cl)c(C(=O)c3ccc(Nc4ccc(F)cc4F)nc3)cc2[nH]1
4,8,COc1ccc(C#CC(C)(C)N)cc1C(=O)c1ccc(Nc2ccc(F)cc2F)nc1
5,6,CC(C)(N)C#Cc1ccc(Cl)c(C(=O)c2ccc(Nc3ccc(F)cc3F)cc2)c1
6,5,COc1cc2nc(C)[nH]c2cc1C(=O)c1ccc(Nc2ccc(F)cc2F)cc1
7,1,COc1ccc(/C=C/C2(O)CCN(C)CC2)cc1C(=O)c1ccc(Nc2ccc(F)cc2F)cc1
8,0.7,Cc1nc2cc(Cl)c(C(=O)c3ccc(Nc4ccc(F)cc4F)cc3)cc2[nH]1
